The test has as its system BDF1 mice, colon carcinoma 38 sc, T/C %. The test is described as follows: NCI In Vivo Anticancer Drug Screen. Data for tumor model Colon Carcinoma 38 (subcutaneous) in B6D2F1 (BDF1) mice. Particulars: endpoint: median tumor weight (est.), higher = larger tumour. The gist of the method:
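Ratio of survival or tumor size, compound-treated animals relative to vehicle controls, in tumor-bearing mice.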

The mark [1] stands for this setting: dose: 4.0 mg/kg/injection, schedule: Q07DX002 (ip), vehicle: saline.
Setting [2] is: dose: 25.0 mg/kg/injection, schedule: Q07DX002 (ip), vehicle: saline with Tween-80.
Where [3] appears, read: dose: 100.0 mg/kg/injection, schedule: Q07DX002 (ip), vehicle: saline.
Where [4] appears, read: dose: 100.0 mg/kg/injection, schedule: Q07DX003 (ip), vehicle: saline.
The mark [5] stands for this setting: dose: 200.0 mg/kg/injection, schedule: Q07DX002 (ip), vehicle: saline.
[6] abbreviates: dose: 200.0 mg/kg/injection, schedule: Q07DX003 (ip), vehicle: saline.
Setting [7] is: dose: 400.0 mg/kg/injection, schedule: Q07DX002 (ip), vehicle: saline.
[8] abbreviates: dose: 400.0 mg/kg/injection, schedule: Q07DX003 (ip), vehicle: saline.
[9] abbreviates: dose: 50.0 mg/kg/injection, schedule: Q07DX002 (ip), vehicle: saline with Tween-80.
Setting [10] is: dose: 200.0 mg/kg/injection, schedule: Q07DX002 (ip), vehicle: saline with Tween-80.
[11] abbreviates: dose: 25.0 mg/kg/injection, schedule: Q07DX002 (ip), vehicle: saline.
Where [12] appears, read: dose: 50.0 mg/kg/injection, schedule: Q07DX002 (ip), vehicle: saline.

Data on twelve molecules can be found in PubChem BioAssay AID212 (DTP/NCI, 2004).

Several values for one entry are separate records, joined by “and”; a condition that tells them apart may be missing. Equal entries are not always repeated. Results filed as inconclusive are left out.

In the case of `Nc1nc(=S)c2[nH]cnc2[nH]1`, the T/C runs as follows: (dose: 1.56 mg/kg/injection, schedule: Q07DX002 (ip), vehicle: alkali diluted with saline) 105 % of control; (dose: 2.0 mg/kg/injection, schedule: Q07DX002 (ip), vehicle: alkali diluted with saline) 63 % of control; (dose: 2.0 mg/kg/injection, schedule: Q07DX003 (ip), vehicle: alkali diluted with saline) 37 % of control and 46 % of control (2×); (dose: 2.0 mg/kg/injection, schedule: Q07DX003 (ip), vehicle: saline) 52 % of control and 61 % of control; (dose: 3.13 mg/kg/injection, schedule: Q07DX002 (ip), vehicle: alkali diluted with saline) 32 % of control; (dose: 4.0 mg/kg/injection, schedule: Q07DX002 (ip), vehicle: alkali diluted with saline) 44 % of control. Besides, the T/C is, setting by setting: under setting [1], 54 % of control and 78 % of control; (dose: 4.0 mg/kg/injection, schedule: Q07DX003 (ip), vehicle: saline) 27 % of control and 42 % of control; (dose: 6.25 mg/kg/injection, schedule: Q07DX002 (ip), vehicle: alkali diluted with saline) 29 % of control; (dose: 8.0 mg/kg/injection, schedule: Q07DX002 (ip), vehicle: alkali diluted with saline) 21 % of control; (dose: 8.0 mg/kg/injection, schedule: Q07DX002 (ip), vehicle: saline) 26 % of control and 31 % of control; (dose: 8.0 mg/kg/injection, schedule: Q07DX003 (ip), vehicle: alkali diluted with saline) 8 % of control and 11 % of control and 18 % of control. Moreover, the T/C was 13 % of control and 37 % of control (dose: 8.0 mg/kg/injection, schedule: Q07DX003 (ip), vehicle: saline); 9 % of control (dose: 12.5 mg/kg/injection, schedule: Q07DX002 (ip), vehicle: alkali diluted with saline); 20 % of control (dose: 16.0 mg/kg/injection, schedule: Q07DX002 (ip), vehicle: alkali diluted with saline); 17 % of control and 24 % of control (dose: 16.0 mg/kg/injection, schedule: Q07DX002 (ip), vehicle: saline); 2 % of control and 8 % of control (dose: 16.0 mg/kg/injection, schedule: Q07DX003 (ip), vehicle: alkali diluted with saline); 4 % of control and 15 % of control (dose: 16.0 mg/kg/injection, schedule: Q07DX003 (ip), vehicle: saline). Further, the T/C is 18 % of control (dose: 25.0 mg/kg/injection, schedule: Q07DX002 (ip), vehicle: alkali diluted with saline); 14 % of control (dose: 32.0 mg/kg/injection, schedule: Q07DX002 (ip), vehicle: alkali diluted with saline); 2 % of control (dose: 32.0 mg/kg/injection, schedule: Q07DX003 (ip), vehicle: alkali diluted with saline); 9 % of control (dose: 32.0 mg/kg/injection, schedule: Q07DX003 (ip), vehicle: saline); 16 % of control (dose: 50.0 mg/kg/injection, schedule: Q07DX002 (ip), vehicle: alkali diluted with saline).

As to `Nc1ccc(Cl)cc1N`, the T/C was 75 % of control and 97 % of control (dose: 12.5 mg/kg/injection, schedule: Q07DX002 (ip), vehicle: saline with Tween-80); 78 % of control and 92 % of control under setting [2].

Regarding `O=C1NC(O)CCN1C1OC(CO)C(O)C1O` (centres undefined), the T/C is 153 % of control under setting [3]; 94 % of control under setting [4]; 192 % of control under setting [5]; 91 % of control under setting [6]; 89 % of control under setting [7]; 157 % of control under setting [8]. For the setting “dose: 800.0 mg/kg/injection, schedule: Q07DX002 (ip), vehicle: saline”, the T/C is 113 % of control.

On to `CSc1ccc2c(c1)C(N1CCN(C)CC1)Cc1ccccc1S2` (centres undefined), for which the T/C under setting [9] is 68 % of control and 72 % of control.

Consider `ClC1C(Cl)C(Cl)C(Cl)C(Cl)C1Cl` (centres undefined), for which the T/C by setting is: (dose: 25.0 mg/kg/injection, schedule: Q07DX002 (ip), vehicle: Klucel (hydroxypropylcellulose) (HPC)) 103 % of control; (dose: 50.0 mg/kg/injection, schedule: Q07DX002 (ip), vehicle: Klucel (hydroxypropylcellulose) (HPC)) 88 % of control; (dose: 56.0 mg/kg/injection, schedule: Q07DX002 (ip), vehicle: saline with Tween-80) 109 % of control and 95 % of control; (dose: 100.0 mg/kg/injection, schedule: Q07DX002 (ip), vehicle: Klucel (hydroxypropylcellulose) (HPC)) 71 % of control; (dose: 112.0 mg/kg/injection, schedule: Q07DX002 (ip), vehicle: saline with Tween-80) 69 % of control and 82 % of control; (dose: 200.0 mg/kg/injection, schedule: Q07DX002 (ip), vehicle: Klucel (hydroxypropylcellulose) (HPC)) 113 % of control. Besides, the T/C reads like this: (dose: 400.0 mg/kg/injection, schedule: Q07DX002 (ip), vehicle: Klucel (hydroxypropylcellulose) (HPC)) 118 % of control; (dose: 450.0 mg/kg/injection, schedule: Q07DX002 (ip), vehicle: saline with Tween-80) 80 % of control and 85 % of control.

Take `CC[C@@]1(O)C[C@H](OC2CC(N(C)C)C(OC3CC(O)C(OC4CC(O)C(O)C(C)O4)C(C)O3)C(C)O2)c2c(cc3c(c2O)C(=O)c2c(O)ccc(O)c2C3=O)[C@H]1C(=O)OC` (some centres undefined): the T/C is 95 % of control (dose: 1.5 mg/kg/injection, schedule: Q07DX003 (ip), vehicle: Klucel (hydroxypropylcellulose) (HPC)) and 72 % of control (dose: 3.0 mg/kg/injection, schedule: Q07DX003 (ip), vehicle: Klucel (hydroxypropylcellulose) (HPC)).

As for `CC(C#N)(C#N)N=Nc1ccc(Cl)cc1Cl`, the T/C runs as follows: under setting [2], 86 % of control and 101 % of control; under setting [9], 50 % of control and 69 % of control; (dose: 100.0 mg/kg/injection, schedule: Q07DX002 (ip), vehicle: saline with Tween-80) 66 % of control and 73 % of control; under setting [10], 58 % of control and 64 % of control; (dose: 800.0 mg/kg/injection, schedule: Q07DX002 (ip), vehicle: saline with Tween-80) 63 % of control and 78 % of control.

Regarding `COC(OC(CO)C(O)S(=O)(=O)O)C(O)S(=O)(=O)O` (centres undefined), the T/C is 113 % of control (dose: 12.5 mg/kg/injection, schedule: Q07DX002 (ip), vehicle: saline); 123 % of control (dose: 12.5 mg/kg/injection, schedule: Q07DX003 (ip), vehicle: saline); 108 % of control under setting [11]; 100 % of control (dose: 25.0 mg/kg/injection, schedule: Q07DX003 (ip), vehicle: saline); 123 % of control and 105 % of control under setting [12]; 97 % of control (dose: 50.0 mg/kg/injection, schedule: Q07DX003 (ip), vehicle: saline). Also, the T/C is 95 % of control and 105 % of control under setting [3]; 110 % of control under setting [4]; 80 % of control and 105 % of control under setting [5]; 98 % of control under setting [6]; 85 % of control and 86 % of control under setting [7]; 50 % of control under setting [8].

Turning to `COc1cc([C@@H]2c3cc4c(c(O)c3C[C@H]3COC(=O)[C@@H]32)OCO4)cc(OC)c1O`, the T/C reads like this: (dose: 0.5 mg/kg/injection, schedule: Q07DX002 (ip), vehicle: saline) 78 % of control; (dose: 1.0 mg/kg/injection, schedule: Q07DX002 (ip), vehicle: saline) 65 % of control; (dose: 2.0 mg/kg/injection, schedule: Q07DX002 (ip), vehicle: saline) 81 % of control; under setting [1], 123 % of control.

For `C[CH2][Ge]1([CH2]C)[CH2]CC2(CCN(CCCN(C)C)C2)C[CH2]1`, the T/C (dose: 6.25 mg/kg/injection, schedule: Q07DX002 (ip), vehicle: saline) was 97 % of control; the T/C under setting [11] was 105 % of control; the T/C under setting [12] is 110 % of control.

`COc1cccc2c1C(=O)c1c(O)c3c(c(O)c1C2=O)C[C@@](O)(C(=O)CO)C[C@@H]3OC1CC(N)CC(C)O1` (some centres undefined): the T/C is, setting by setting: (dose: 0.75 mg/kg/injection, schedule: Q07DX002 (ip), vehicle: water) 93 % of control; (dose: 1.5 mg/kg/injection, schedule: Q07DX002 (ip), vehicle: water) 110 % of control; (dose: 3.0 mg/kg/injection, schedule: Q07DX002 (ip), vehicle: water) 25 % of control.

For `CNc1cccnc1/C=N/NC(N)=S`, the T/C by setting is: under setting [2], 119 % of control; under setting [9], 95 % of control; under setting [10], 45 % of control and 66 % of control; (dose: 400.0 mg/kg/injection, schedule: Q07DX002 (ip), vehicle: saline with Tween-80) 32 % of control and 33 % of control.
